Molecular target: T1, EphA1 (Homo sapiens, UniProt P21709)
T1 construct: expressed in transfected cells; host or cells: HEK 293
T1 sequence (P21709 26-976): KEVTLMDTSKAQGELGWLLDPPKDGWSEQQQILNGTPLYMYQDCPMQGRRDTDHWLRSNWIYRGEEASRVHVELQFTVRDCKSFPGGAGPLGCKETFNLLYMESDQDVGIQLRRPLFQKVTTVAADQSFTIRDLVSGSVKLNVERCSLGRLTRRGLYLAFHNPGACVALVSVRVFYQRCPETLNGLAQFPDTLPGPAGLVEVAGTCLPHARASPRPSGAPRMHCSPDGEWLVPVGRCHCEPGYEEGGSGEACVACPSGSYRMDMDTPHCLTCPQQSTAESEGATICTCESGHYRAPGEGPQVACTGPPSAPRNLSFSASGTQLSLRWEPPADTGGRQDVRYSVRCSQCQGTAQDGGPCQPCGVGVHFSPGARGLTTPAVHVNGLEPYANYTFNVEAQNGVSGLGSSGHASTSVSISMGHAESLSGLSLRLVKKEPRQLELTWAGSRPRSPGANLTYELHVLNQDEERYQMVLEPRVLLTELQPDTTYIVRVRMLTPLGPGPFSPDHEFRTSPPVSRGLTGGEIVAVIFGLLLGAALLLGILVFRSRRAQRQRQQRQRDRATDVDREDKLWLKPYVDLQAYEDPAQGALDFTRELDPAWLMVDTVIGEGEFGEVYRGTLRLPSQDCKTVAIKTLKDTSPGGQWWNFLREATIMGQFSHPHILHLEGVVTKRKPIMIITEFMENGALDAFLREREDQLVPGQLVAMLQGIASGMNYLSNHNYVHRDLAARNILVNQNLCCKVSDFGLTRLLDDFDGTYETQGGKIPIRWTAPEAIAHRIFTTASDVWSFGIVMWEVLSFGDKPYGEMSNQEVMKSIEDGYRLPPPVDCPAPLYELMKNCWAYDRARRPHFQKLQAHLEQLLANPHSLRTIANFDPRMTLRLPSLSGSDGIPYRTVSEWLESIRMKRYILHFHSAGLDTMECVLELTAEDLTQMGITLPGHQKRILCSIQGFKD
Test: Eph receptor activation in HEK 293 cells overexpressing EphA1
Type: cell-based
Conditions: HEK 293 cells overexpressing EphA1, same concentrations, 60 minutes
Experimental: Cells were plated in 24-well dishes at a density of 100,000 cells/well and grown for 24 hours prior to stimulation with appropriate compounds and ephrins for the given amounts of time. Compounds were prepared in DMSO at 500 times the final concentrations and 0.2% DMSO was used as vehicle control. Following treatment, cells were lysed directly in SDS Gel Loading Buffer and immunoblotted as described previously. […] For this purpose, HEK 293 cell lines overexpressing EphA1, EphA2, EphA3, EphA4, and EphB3 kinases were utilized.

COc1cc2nc(N3CCN(C(=O)C4COc5ccccc5O4)CC3)nc(N)c2cc1OC (stereo not shown) [doxazosin]
EphA1 activation, Eph receptor panel: no activation of EphA1

— US11814372B2, “Agonists of EPHA and their uses” (CASE WESTERN RESERVE UNIVERSITY, priority 2017, dated 2023)
